# Measured values taken from ChEMBL document CHEMBL1201862, “PubChem BioAssay data set” (2004).
# Activity calls are given as the source filed them.
# Key:
# [1] = target: T1, E3 ubiquitin-protein ligase XIAP (Homo sapiens, UniProt P98170); assay: XIAP antagonists, biochemical, IAP family, fluorescence polarization (AID 1018); type: functional
# [2] = target: T1, E3 ubiquitin-protein ligase XIAP; assay: Counter Screen using XIAP-Bir3 for Chemical Antagonists of Bir1/2 domains of IAP-family anti-apoptotic proteins. [Related pubchem assays (depositor defined):AID1018, AID1449, AID1514, AID1638, AID1749, AID1750, AID488957, AID488963]
# Genome polyprotein = Genome polyprotein (dengue virus type 2, UniProt P29990); assay: Dengue-2 NS5 methyltransferase inhibitors, primary screen, biochemical, confirmation dose response (AID 588689); type: functional
# Chain of Genome polyprotein (P29990 2492-3391 limits assumed): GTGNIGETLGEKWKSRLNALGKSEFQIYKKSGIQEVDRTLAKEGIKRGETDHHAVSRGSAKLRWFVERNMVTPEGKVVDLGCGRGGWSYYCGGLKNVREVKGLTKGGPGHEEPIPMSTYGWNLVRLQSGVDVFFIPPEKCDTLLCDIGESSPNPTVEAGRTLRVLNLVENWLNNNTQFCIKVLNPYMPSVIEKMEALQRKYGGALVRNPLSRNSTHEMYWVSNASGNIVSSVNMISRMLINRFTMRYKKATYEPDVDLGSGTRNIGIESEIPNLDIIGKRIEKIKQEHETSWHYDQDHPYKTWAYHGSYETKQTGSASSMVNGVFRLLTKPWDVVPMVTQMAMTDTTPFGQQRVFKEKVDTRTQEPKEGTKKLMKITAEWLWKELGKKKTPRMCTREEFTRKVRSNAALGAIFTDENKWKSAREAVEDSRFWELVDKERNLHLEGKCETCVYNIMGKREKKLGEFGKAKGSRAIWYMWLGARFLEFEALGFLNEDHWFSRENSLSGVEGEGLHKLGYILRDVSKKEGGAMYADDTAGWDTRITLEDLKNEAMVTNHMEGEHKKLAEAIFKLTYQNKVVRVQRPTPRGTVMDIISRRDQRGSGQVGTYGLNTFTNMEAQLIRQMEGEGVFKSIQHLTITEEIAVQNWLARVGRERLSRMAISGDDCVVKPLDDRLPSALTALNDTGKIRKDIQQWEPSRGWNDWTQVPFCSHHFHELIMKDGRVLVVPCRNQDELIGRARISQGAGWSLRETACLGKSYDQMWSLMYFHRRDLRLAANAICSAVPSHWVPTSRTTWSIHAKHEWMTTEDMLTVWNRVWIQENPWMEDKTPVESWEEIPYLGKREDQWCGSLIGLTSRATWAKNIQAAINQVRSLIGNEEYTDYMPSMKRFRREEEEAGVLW
# Vero = Vero cell cytotoxicity, cytotoxicity control for flavivirus capping enzyme inhibitors (AID 588742); type: functional; settings: Chlorocebus sabaeus
# [3] = target: T2, Type-1 angiotensin II receptor (Homo sapiens, UniProt P30556); assay: AT1 receptor antagonists, dose response, selectivity assay for APJ receptor antagonist project, cell-based, uHTS hits (AID 463214); type: functional;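 note: antagonist potency against angiotensin II stimulated AT1 response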
# T2 sequence (P30556 whole entry): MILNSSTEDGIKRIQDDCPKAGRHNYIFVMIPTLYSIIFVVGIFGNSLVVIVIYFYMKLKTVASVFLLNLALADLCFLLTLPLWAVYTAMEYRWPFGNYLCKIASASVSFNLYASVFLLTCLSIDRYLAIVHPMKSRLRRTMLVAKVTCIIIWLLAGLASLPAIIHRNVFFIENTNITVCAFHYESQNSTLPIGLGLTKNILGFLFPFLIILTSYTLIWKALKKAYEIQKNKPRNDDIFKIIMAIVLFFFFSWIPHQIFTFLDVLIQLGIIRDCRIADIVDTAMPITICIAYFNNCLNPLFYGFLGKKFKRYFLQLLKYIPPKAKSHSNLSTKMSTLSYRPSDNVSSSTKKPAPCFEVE
# Beta-galactosidase = Beta-galactosidase (Escherichia coli, UniProt Q8VNN2); assay: PubChem AID 485352; type: functional
# Chain of Beta-galactosidase (Q8VNN2 whole entry): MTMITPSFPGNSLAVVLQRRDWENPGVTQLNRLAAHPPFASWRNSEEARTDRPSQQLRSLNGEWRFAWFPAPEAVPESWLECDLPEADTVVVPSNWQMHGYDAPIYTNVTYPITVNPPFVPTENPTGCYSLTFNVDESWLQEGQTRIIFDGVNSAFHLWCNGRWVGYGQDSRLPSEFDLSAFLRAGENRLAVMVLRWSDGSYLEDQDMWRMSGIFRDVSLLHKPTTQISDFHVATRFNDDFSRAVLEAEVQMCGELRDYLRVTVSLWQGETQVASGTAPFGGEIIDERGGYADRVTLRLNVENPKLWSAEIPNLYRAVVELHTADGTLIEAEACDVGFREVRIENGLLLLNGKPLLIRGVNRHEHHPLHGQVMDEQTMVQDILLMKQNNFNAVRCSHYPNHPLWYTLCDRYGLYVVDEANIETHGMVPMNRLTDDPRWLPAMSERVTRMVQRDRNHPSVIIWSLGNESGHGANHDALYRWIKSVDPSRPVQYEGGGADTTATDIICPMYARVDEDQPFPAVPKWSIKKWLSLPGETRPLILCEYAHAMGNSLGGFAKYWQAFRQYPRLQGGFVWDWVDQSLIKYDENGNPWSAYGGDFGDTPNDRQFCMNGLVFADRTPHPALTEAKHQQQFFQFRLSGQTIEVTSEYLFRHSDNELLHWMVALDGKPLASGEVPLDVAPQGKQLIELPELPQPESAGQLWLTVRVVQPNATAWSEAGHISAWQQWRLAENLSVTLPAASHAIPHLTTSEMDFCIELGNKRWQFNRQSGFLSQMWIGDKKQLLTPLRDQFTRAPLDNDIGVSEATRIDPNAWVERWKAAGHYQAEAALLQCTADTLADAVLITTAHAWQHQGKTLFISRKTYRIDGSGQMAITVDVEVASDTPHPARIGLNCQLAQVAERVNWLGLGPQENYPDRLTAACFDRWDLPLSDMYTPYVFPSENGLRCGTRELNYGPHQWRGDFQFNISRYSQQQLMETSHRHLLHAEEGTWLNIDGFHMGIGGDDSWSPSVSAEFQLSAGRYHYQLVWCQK
# [4] = target: T3, Long-chain-fatty-acid--AMP ligase FadD28 (Mycobacterium tuberculosis, UniProt P9WQ59); assay: Fluorescence polarization aasay to screen for inhibitors that compete for the binding of FadD28 to a bisubstrate Measured in Biochemical System Using Plate Reader - 2147-01_Inhibitor_Dose_CherryPick_Activity.; type: functional, Mycobacterium tuberculosis H37Rv
# T3 sequence (P9WQ59 whole entry): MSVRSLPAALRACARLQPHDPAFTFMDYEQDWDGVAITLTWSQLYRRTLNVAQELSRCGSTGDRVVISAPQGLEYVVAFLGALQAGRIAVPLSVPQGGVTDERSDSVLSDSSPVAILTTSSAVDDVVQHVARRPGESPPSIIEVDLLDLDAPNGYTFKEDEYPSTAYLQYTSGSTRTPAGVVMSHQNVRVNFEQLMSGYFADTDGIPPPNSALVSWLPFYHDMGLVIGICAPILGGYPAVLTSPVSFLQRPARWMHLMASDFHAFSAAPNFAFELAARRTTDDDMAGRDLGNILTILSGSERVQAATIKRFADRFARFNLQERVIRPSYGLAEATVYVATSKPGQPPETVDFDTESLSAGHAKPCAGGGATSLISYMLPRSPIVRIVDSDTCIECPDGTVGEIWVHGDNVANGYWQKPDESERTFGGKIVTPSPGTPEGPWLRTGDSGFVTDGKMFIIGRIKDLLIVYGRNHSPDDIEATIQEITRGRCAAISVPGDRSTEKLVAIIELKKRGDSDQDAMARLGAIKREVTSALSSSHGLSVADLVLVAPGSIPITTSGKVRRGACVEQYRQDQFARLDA
# [5] = target: Glucose-6-phosphate 1-dehydrogenase (Homo sapiens, UniProt P11413); assay: human G6PD enzyme inhibitors, dose response, selectivity assay for P. falciparum G6PD inhibitor project, biochemical, fluorescence (AID 504792); type: functional
# Chain of Glucose-6-phosphate 1-dehydrogenase (P11413 whole entry): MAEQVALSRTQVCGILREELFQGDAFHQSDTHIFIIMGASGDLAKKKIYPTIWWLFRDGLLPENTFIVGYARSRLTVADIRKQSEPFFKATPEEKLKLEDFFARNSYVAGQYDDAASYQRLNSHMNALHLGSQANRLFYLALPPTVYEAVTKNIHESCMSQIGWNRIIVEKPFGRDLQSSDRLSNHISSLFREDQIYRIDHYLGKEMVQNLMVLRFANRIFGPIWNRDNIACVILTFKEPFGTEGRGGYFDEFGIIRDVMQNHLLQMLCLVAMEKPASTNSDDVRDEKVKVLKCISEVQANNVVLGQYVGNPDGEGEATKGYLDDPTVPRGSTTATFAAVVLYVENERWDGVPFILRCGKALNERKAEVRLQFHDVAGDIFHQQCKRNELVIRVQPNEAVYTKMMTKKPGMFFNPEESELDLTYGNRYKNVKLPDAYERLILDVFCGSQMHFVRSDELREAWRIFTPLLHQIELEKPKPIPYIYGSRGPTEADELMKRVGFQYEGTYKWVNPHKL
# [6] = target: T4, Lysosomal acid glucosylceramidase (Homo sapiens, UniProt P04062); assay: Dose response cell-based high throughput screening assay to identify enhancers of beta-glucosidase activity. [Related pubchem assays: 784 ]; type: functional
# T4 sequence (P04062 whole entry): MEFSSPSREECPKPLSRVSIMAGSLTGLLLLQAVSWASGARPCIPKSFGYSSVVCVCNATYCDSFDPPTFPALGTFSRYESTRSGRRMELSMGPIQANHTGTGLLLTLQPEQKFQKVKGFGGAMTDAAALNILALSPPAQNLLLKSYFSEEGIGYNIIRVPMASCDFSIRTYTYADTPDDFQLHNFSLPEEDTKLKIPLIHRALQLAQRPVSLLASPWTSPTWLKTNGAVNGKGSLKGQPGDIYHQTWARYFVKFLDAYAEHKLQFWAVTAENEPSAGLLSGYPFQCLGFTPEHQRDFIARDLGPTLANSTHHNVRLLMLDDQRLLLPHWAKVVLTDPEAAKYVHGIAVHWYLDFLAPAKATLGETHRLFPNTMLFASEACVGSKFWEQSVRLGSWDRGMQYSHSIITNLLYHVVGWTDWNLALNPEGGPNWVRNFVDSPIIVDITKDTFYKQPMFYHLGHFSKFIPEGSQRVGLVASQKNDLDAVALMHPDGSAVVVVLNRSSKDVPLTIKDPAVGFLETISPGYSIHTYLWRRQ
# [7] = target: T5, Short transient receptor potential channel 4 (Mus musculus, UniProt Q9QUQ5); assay: mouse TRPC4 channel inhibitors, dose response, cell-based, HEK293 TRPC4/mu-opioid, Fluo-4 calcium (AID 434942); type: functional;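 note: potency of inhibitors blocking the TRPC4 calcium response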
# T5 sequence (Q9QUQ5 whole entry): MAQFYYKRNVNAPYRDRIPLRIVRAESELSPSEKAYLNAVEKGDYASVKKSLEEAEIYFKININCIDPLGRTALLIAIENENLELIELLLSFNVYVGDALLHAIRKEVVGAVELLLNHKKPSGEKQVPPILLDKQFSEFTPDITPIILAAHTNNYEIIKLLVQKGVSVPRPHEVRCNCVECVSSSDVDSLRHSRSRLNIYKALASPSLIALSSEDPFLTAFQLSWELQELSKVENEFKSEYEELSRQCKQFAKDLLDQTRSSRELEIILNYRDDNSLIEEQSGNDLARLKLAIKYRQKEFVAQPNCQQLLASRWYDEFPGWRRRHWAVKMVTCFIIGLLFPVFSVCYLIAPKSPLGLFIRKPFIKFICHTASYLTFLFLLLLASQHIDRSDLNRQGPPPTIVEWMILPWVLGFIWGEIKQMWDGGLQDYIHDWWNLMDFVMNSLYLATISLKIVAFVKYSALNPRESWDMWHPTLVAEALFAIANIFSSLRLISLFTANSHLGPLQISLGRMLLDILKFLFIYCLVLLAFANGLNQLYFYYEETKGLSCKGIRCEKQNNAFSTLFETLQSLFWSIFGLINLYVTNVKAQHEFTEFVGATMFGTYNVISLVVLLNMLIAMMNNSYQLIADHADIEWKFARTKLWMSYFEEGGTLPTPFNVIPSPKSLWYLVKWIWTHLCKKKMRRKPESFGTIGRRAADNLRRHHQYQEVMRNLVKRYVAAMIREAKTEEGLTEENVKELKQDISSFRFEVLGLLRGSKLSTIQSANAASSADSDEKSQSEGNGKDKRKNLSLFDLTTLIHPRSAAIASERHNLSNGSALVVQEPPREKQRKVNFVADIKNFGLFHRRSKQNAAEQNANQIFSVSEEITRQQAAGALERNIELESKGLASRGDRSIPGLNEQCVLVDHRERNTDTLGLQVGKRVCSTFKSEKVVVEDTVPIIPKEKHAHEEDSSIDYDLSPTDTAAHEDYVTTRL
# [8] = target: T6, Corticotropin-releasing factor receptor 2/Corticotropin-releasing factor-binding protein (Homo sapiens, UniProt P24387+Q13324); assay: activators of CRF receptor 2 with binding protein – uHTS hits, confirmation (AID 602473); type: functional; settings: read-out: EC50_Mean
# T6 sequence (Q13324 whole entry): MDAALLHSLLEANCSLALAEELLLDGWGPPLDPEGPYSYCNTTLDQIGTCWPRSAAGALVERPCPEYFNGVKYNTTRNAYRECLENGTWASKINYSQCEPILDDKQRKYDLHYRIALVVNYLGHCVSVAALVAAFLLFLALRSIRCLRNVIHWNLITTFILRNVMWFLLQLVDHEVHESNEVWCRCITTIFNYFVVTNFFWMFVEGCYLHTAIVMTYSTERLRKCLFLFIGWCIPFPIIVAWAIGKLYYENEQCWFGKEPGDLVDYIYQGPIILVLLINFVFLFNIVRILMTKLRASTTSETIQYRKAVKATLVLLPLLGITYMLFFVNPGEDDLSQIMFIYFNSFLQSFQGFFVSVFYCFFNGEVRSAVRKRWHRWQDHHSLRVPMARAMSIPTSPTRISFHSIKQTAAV
# T6 sequence (P24387 whole entry): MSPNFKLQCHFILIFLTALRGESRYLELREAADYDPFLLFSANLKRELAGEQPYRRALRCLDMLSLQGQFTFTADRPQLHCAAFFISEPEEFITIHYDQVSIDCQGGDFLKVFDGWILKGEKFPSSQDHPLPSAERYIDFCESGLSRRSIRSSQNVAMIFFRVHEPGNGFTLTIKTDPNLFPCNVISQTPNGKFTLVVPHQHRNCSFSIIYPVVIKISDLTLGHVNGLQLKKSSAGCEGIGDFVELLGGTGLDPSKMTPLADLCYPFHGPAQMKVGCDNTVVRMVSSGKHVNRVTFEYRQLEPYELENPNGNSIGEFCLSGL
# [9] = target: T6, Corticotropin-releasing factor receptor 2/Corticotropin-releasing factor-binding protein; assay: Dose Response confirmation of uHTS hits for small molecule antagonists of the CRF-binding protein and CRF-R2 receptor complex.; type: functional; settings: read-out: IC50_Mean
# [10] = target: T7, Heat shock factor protein 1 (Mus musculus, UniProt P38532); assay: HSF1 potentiators in luciferase reporter cells, confirmation, cell-based, NIH3T3, luminescence, dose retest (AID 435004); type: functional;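 note: stress induced by proteasome inhibitor MG132 added 30 min after compound; luciferase reporter driven by HSF1 response element in NIH3T3 cells; actives raise luminescence as potentiators of the MG132 stress response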
# T7 sequence (P38532 whole entry): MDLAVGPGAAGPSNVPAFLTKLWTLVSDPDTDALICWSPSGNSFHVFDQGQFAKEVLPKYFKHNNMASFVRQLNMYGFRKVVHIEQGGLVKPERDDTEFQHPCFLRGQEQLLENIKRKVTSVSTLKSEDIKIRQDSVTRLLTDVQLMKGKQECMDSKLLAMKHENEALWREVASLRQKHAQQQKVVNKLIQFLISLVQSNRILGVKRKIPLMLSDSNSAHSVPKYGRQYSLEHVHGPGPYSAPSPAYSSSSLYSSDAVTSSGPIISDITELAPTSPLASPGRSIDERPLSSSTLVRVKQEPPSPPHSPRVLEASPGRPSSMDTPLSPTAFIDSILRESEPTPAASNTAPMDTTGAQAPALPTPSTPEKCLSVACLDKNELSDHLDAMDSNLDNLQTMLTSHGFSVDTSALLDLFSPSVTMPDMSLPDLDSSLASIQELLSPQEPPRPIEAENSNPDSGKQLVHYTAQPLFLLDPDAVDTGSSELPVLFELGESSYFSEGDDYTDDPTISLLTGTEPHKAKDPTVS
# [11] = target: Beta-2 adrenergic receptor (Homo sapiens, UniProt P07550); assay: beta2AR agonists driving receptor internalization, dose response, cell-based, FAP fluorogen, flow cytometry, cherry pick 1 (AID 588763); type: functional
# Chain of Beta-2 adrenergic receptor (P07550 whole entry): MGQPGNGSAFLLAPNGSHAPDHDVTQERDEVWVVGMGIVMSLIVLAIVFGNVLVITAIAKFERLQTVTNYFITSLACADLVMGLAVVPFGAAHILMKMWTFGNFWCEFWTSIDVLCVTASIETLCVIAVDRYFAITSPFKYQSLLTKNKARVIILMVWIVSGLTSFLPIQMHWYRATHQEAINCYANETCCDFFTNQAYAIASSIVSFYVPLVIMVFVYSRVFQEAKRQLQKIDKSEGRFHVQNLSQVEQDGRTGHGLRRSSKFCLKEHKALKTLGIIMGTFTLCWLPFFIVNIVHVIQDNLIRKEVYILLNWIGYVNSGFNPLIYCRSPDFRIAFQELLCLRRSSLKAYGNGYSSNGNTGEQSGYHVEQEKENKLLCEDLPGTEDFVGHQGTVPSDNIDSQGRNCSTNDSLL
# SUMO-activating enzyme [12] = target: T8, SUMO-activating enzyme (Homo sapiens, UniProt Q9UBT2); assay: inhibitors of in vitro SUMOylation cascade, primary screen, biochemical, HTRF, uHTS (AID 2006); type: protein-complex assay
# T8 sequence (Q9UBE0 whole entry): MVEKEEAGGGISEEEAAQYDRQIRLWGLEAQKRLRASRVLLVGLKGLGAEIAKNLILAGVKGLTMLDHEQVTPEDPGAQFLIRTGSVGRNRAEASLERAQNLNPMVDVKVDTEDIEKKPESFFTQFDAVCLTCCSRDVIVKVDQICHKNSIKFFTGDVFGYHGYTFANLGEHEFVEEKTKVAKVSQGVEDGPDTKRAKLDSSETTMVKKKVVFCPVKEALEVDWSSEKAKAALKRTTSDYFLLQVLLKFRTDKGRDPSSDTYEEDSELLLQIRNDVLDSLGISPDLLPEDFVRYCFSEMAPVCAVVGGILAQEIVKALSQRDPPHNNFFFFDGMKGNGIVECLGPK
# T8 sequence (Q9UBT2 whole entry): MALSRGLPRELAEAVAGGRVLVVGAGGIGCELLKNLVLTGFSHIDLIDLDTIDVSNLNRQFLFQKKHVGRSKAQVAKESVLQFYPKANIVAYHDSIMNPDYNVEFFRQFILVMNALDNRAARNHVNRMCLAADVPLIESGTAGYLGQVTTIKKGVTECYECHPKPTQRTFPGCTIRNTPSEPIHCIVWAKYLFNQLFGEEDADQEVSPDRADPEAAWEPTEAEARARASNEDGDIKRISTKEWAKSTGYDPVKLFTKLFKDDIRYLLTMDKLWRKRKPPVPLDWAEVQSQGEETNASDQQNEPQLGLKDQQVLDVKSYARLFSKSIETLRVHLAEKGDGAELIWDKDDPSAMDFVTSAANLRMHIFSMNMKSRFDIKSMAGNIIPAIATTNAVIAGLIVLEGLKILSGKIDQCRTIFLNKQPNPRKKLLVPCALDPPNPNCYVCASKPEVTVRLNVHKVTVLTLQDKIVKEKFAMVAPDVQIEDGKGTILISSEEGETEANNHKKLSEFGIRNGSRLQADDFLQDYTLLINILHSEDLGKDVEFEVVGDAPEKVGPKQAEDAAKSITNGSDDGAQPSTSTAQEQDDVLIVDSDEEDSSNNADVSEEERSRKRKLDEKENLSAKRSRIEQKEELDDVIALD
# SUMO-activating enzyme [13] = target: T8, SUMO-activating enzyme; assay: SUMOylation inhibitor hit validation, confirmation, SUMOylation inhibitor project, biochemical, AlphaScreen (AID 2018); type: functional
# Large T antigen = Large T antigen (Simian virus 40, UniProt P03070); type: functional, Betapolyomavirus macacae;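 note: Confirmatory-stage PubChem screen for compounds that inhibit SV40 T antigen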
# Chain of Large T antigen (P03070 whole entry): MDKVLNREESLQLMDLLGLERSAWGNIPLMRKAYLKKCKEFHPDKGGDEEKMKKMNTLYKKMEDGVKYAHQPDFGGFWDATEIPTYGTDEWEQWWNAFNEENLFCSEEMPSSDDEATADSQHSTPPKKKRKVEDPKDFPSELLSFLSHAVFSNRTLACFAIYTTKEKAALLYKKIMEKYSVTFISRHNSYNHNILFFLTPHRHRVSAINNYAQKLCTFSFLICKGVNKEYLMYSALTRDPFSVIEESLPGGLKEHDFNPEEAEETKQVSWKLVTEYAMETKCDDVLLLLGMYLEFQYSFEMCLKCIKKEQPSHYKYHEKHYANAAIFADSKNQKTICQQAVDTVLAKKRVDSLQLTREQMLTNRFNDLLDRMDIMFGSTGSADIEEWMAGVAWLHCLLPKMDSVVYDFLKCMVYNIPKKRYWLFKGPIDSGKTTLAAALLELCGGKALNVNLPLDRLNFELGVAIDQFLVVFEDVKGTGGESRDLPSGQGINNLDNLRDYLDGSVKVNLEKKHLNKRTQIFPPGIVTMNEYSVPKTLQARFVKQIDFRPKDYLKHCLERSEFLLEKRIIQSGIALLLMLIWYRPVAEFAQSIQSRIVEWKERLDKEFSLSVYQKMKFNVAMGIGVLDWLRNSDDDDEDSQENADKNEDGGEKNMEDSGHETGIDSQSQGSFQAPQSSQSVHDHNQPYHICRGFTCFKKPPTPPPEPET
# T1 sequence (P98170 whole entry): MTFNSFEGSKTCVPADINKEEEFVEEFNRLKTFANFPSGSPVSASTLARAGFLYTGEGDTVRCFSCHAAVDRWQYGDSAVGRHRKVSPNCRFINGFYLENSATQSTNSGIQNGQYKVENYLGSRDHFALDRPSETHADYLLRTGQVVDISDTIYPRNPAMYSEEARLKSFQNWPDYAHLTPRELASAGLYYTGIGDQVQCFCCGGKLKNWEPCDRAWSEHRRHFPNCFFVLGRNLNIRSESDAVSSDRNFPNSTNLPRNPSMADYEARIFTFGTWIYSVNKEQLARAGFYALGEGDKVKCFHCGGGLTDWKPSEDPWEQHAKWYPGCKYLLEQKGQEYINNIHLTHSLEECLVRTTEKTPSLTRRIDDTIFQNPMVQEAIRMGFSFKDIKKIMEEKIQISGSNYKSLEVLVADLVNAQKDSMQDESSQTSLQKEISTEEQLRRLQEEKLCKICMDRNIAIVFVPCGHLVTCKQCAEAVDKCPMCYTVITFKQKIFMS
structure (smiles),measurement,setting,value
N#Cc1ccccc1CSc1nc2cc(Br)c[nH]c-2n1,IC50,[1],> 100 µM (not active)
same,IC50,[2],> 100 µM (inactive)
O=S(=O)(Nc1nc2ccccc2nc1NCc1ccco1)c1ccc(Cl)cc1,IC50,Genome polyprotein,91.9 µM (active)
same,CC50,Vero,> 40 µM (active)
Cc1ccc(S(=O)(=O)c2cn(CC(=O)Nc3ccccc3)c3ccc(F)cc3c2=O)cc1,IC50,[1],> 100 µM (not active)
same,IC50,[2],> 100 µM (inactive)
CCc1ccc(C(=O)NNc2ccc(Cl)cc2)cc1,IC50,[3],6.08 µM (active)
same,EC50,Beta-galactosidase,> 40 µM (inactive)
CCCCCCCCSC1=CC(=O)C(OC)=C(OC)C1=O,IC50,Genome polyprotein,12.5 µM (active)
same,AC50,[4],30.9 µM (active)
same,CC50,Vero,> 40 µM (active)
same,IC50,[5],48.1 µM (inactive)
CC1CCCCN1C(=O)CSc1nc2cc3c(cc2c(=O)n1Cc1ccc2c(c1)OCO2)OCO3 (stereo not drawn),IC50,[3],> 40 µM (not active)
same,EC50,Beta-galactosidase,> 40 µM (inactive)
same,EC50,[6],> 50 µM (not active)
O=C(O)CN1C(c2ccccc2O)Nc2ccc(Br)cc2C1c1ccccc1 (stereo not drawn),IC50,[1],> 100 µM (not active)
same,IC50,[2],> 100 µM (inactive)
same,EC50,[7],5.31 µM (active)
same,EC50,[8],> 53 µM (inactive)
same,IC50,[9],28.6 µM (active)
CC(=O)c1ccc(NC2=c3ccccc3=NC2=O)cc1,IC50,[3],3.1 µM (active)
same,EC50,Beta-galactosidase,> 40 µM (inactive)
same,EC50,[10],> 260 µM (inactive)
NC(=O)CC(NC(=O)Cc1cccc2ccccc12)c1ccc(NCCCN2CCCC2=O)c([N+](=O)[O-])c1 (stereo not drawn),EC50,[11],0.801 µM (active)
CCc1ccc(NC(=O)NNC(=O)c2cc3ccccc3cc2O)cc1,IC50,SUMO-activating enzyme [12],11.6 µM (active)
same,IC50,SUMO-activating enzyme [13],37.2 µM (active)
O=C(O)CN1C(=O)/C(=C\C(Br)=C\c2ccccc2)SC1=S,IC50,Large T antigen,53.4 µM (active)
same,CC50,Vero,> 40 µM (active)
